Measurements published in publication PMC6361752, “Construction of a Quantitative Structure Activity Relationship (QSAR) Model to Predict the Absorption of Cephalosporins in Zebrafish for Toxicity Study” (Frontiers in Pharmacology, 2019).

Tested on: Zebrafish wild-type (WT) embryos
Assay: Absorption (internal concentration) of cephalosporins in zebrafish embryos by LC-MS/MS
Conditions: 6 hpf-3 dpf; for k-value (slope of the dose-internal concentration linear regression): zebrafish embryos, 0.28, 1.0 and 2.0 mM, higher k = more readily absorbed
Procedure: Zebrafish (Danio rerio) were fed at the Institute of Medicinal Biotechnology, Beijing Union Medical College, Beijing, China. […] Zebrafish wild-type (WT) embryos (n = 30) at 6 h post-fertilization (6 hpf) were used. After immersing the embryos in 2 mL of each drug solution (Drugs were dissolved in breeding water), they were incubated in a 20 mm dish for 3 days. […] The zebrafish bodies were collected at 3 days post-fertilization (dpf). The blank controls were zebrafish WT embryos (n = 30) that were incubated in breeding water.
Using a cell strainer (100 μm, BD-Falcon, United States), zebrafish bodies (30 in each dish) were washed five times with deionized water. Zebrafish bodies were triturated in 100 μL of deionized water, and then they were homogenized for 1 min. Zebrafish homogenate (50 μL) and internal standard (IS) working solution (10 μL) were individually transferred into a 1.5-mL microcentrifuge tube. Then, 200 μL of 1% formic acid-methanol solution was added into the tube. The samples were vortexed for 20 s. To precipitate proteins, the samples were centrifuged at 10,800 g for 10 min. The resultant supernatant (10 μL) was injected into LC-MS/MS for analysis.
The LC-MS/MS technique was performed by combining a 20A LC (Shimadzu, Kyoto, Japan) and a 6500 Q-Trap mass spectrometer (AB Sciex, Foster City, CA, United States), which was equipped with an electrospray ionization (ESI) source. Moreover, LC separations were performed on a reversed-phase ACE C18 column (5 cm × 2.1 mm ID, 3 μm particle size, Advanced Chromatography Technologies, Aberdeen, United Kingdom), which was attached to a corresponding guard column (1 cm × 2.1 mm ID, 3 μm particle size; Advanced Chromatography Technologies, United Kingdom). The mobile phase comprised of 5 mM ammonium formate (pH = 3.5) (solvent A) and acetonitrile (solvent B). The composition of the gradient was as follows: 2% solvent B for the first 0.1 min; 3.5 min, 90% solvent B; 6.0 min, 90% solvent B; 6.1 min, 2% solvent B; and 10 min, 2% solvent B. Mass spectrometric analysis was performed in a positive mode. Ion-spray voltage was set at 5000 V, and source temperature was kept fixed at 500°C. Curtain gas, gas 1, and gas 2 were 25, 40, and 40 psi, respectively. Multiple reaction monitoring (MRM) scan was used for the quantification of 19 analytes. In this scan, we determined the most intense product ion (PI) of each analyte. The entrance potential (EP) of all analytes was 10 eV. For each ion transition, dwell time and pause time were set to 30 and 5 ms, respectively. The Analyst 1.6.2 software (AB Sciex, Foster City, CA, United States) was used to perform data acquisition and analysis.
Dose-internal concentration curves were constructed by linear regression analysis. The slope of each linear regression was defined as k-value for each drug. […] The entire data set was split into the training set and test set by a random index, which was operated by DS4.0 software. The training set percentage was set at 80.
Using the aforementioned method, we analyzed the internal concentrations of cephalosporins in zebrafish. […] The calibration samples and administration samples were processed in a timely manner. The internal concentration of each cephalosporin in the zebrafish was calculated by using the corresponding calibration curve (Table 2). […] Dose-internal concentration curves were constructed by linear regression analysis (Figure 1). For each drug, the slope of each linear regression was defined as k-value. This parameter was used to evaluate the absorption capacity of each drug.

[1] = zebrafish embryos exposed to 0.28 mM drug solution
[2] = zebrafish embryos exposed to 1 mM drug solution
[3] = zebrafish embryos exposed to 2 mM drug solution

Internal concentration [1] [mM × 10^-5] | Internal concentration [2] [mM × 10^-5] | Internal concentration [3] [mM × 10^-5] | k-value (slope of the dose-internal concentration linear regression) | SMILES | other results
1.01 | 3.43 | 9.49 | 5.0027 | N[C@@H](C(=O)N[C@@H]1C(=O)N2C(C(=O)O)=C(Cl)CS[C@H]12)c1ccccc1 [Cefaclor] | k-value (slope of the dose-internal concentration linear regression) (listed as cefaclor): > 5
8.56 | 13.95 | 14.19 | 3.0851 | Cc1nnc(SCC2=C(C(=O)O)N3C(=O)[C@@H](NC(=O)Cn4cnnn4)[C@H]3SC2)s1 [Cefazolin] | k-value (slope of the dose-internal concentration linear regression) (listed as cefazolin): < 5
0.51 | 0.94 | 3.47 | 1.7709 | CO/N=C(\C(=O)N[C@@H]1C(=O)N2C(C(=O)O)=C(CSc3nc(C)c(CC(=O)O)s3)CS[C@H]12)c1csc(N)n1 [Cefodizime] | k-value (slope of the dose-internal concentration linear regression) (listed as cefodizime): < 5
0.25 | 1.31 | 3.73 | 2.0488 | CN(C)CCn1nnnc1SCC1=C(C(=O)O)N2C(=O)[C@@H](NC(=O)Cc3csc(N)n3)[C@H]2SC1 [Cefotiam] | k-value (slope of the dose-internal concentration linear regression) (listed as cefotiam): < 5
3.15 | 8.93 | 19.89 | 9.8110 | CC1=C(C(=O)O)N2C(=O)[C@@H](NC(=O)[C@H](N)C3=CCC=CC3)[C@H]2SC1 [Cefradine] | k-value (slope of the dose-internal concentration linear regression) (listed as cefradine): > 5
3.95 | 7.08 | 12.96 | 5.2798 | O=C(Cn1cnnn1)N[C@@H]1C(=O)N2C(C(=O)O)=C(CSc3nncs3)CS[C@H]12 [Ceftezole] | k-value (slope of the dose-internal concentration linear regression) (listed as ceftezole): > 5
0.68 | 1.55 | 4.66 | 2.3643 | CO/N=C(\C(=O)N[C@@H]1C(=O)N2C(C(=O)O)=C(COC(N)=O)CS[C@H]12)c1ccco1 [Cefuroxime] | k-value (slope of the dose-internal concentration linear regression) (listed as cefuroxime): < 5

The remaining lines, values behind:

SMILES | Internal concentration [1] [mM × 10^-5] | Internal concentration [2] [mM × 10^-5] | Internal concentration [3] [mM × 10^-5] | k-value (slope of the dose-internal concentration linear regression) | other results
CC1=C(C(=O)O)N2C(=O)[C@@H](NC(=O)[C@H](N)c3ccc(O)cc3)[C@H]2SC1 [Cefadroxil] | 1.32 | 7.07 | 12.55 | 6.4617 | k-value (slope of the dose-internal concentration linear regression) (listed as cefadroxil): > 5
CC1=C(C(=O)O)N2C(=O)[C@@H](NC(=O)[C@H](N)c3ccccc3)[C@H]2SC1 [Cefalexin] | 1.01 | 5.48 | 16.83 | 9.3280 | –
CC(=O)OCC1=C(C(=O)O)N2C(=O)[C@@H](NC(=O)CSC(=NC(C)C)NC(C)C)[C@H]2SC1 [Cefathiamidine] | 0.49 | 1.29 | 1.63 | 0.6439 | k-value (slope of the dose-internal concentration linear regression) (listed as cefathiamidine): < 5
CO/N=C(\C(=O)N[C@@H]1C(=O)N2C(C(=O)O)=C(CSc3nnnn3C)CS[C@H]12)c1csc(N)n1 [Cefmenoxime] | 0.00 | 0.71 | 1.14 | 0.6493 | k-value (slope of the dose-internal concentration linear regression) (listed as cefmenoxime): < 5
CCN1CCN(C(=O)N[C@@H](C(=O)N[C@@H]2C(=O)N3C(C(=O)O)=C(CSc4nnnn4C)CS[C@H]23)c2ccc(O)cc2)C(=O)C1=O [Cefoperazone] | 1.30 | 5.75 | 12.47 | 6.5063 | k-value (slope of the dose-internal concentration linear regression) (listed as cefoperazone): > 5
CO/N=C(\C(=O)N[C@@H]1C(=O)N2C(C(=O)O)=C(COC(C)=O)CS[C@H]12)c1csc(N)n1 [Cefotaxime] | 0.27 | 0.75 | 0.82 | – | –
CO[C@@]1(NC(=O)Cc2cccs2)C(=O)N2C(C(=O)O)=C(COC(N)=O)CS[C@@H]21 [Cefoxitin] | 2.22 | 12.73 | 18.39 | 9.1638 | k-value (slope of the dose-internal concentration linear regression) (listed as cefoxitin): > 5
CO/N=C(\C(=O)N[C@@H]1C(=O)N2C(C(=O)[O-])=C(C[n+]3cccc4c3CCC4)CS[C@H]12)c1csc(N)n1 [Cefpirome] | 0.21 | 0.86 | 1.67 | < 5 | –
CC(C)(O/N=C(\C(=O)N[C@@H]1C(=O)N2C(C(=O)[O-])=C(C[n+]3ccccc3)CS[C@H]12)c1csc(N)n1)C(=O)O [Ceftazidime] | 0.00 | 2.45 | 5.47 | 3.1702 | k-value (slope of the dose-internal concentration linear regression) (listed as ceftazidime): < 5
CO/N=C(\C(=O)N[C@@H]1C(=O)N2C(C(=O)O)=CCS[C@H]12)c1csc(N)n1 [Ceftizoxime] | 1.17 | 3.70 | 13.15 | 7.1156 | k-value (slope of the dose-internal concentration linear regression) (listed as ceftizoxime): > 5
CO[C@@]1(NC(=O)CSC(F)F)C(=O)N2C(C(=O)O)=C(CSc3nnnn3CCO)CO[C@@H]21 [Flomoxef] | 1.07 | 8.30 | 11.54 | 5.9111 | k-value (slope of the dose-internal concentration linear regression) (listed as flomoxef): > 5
